From US8053458B2, “Dipyrazole compounds and their use as central nervous system agents” (Aventis Pharmaceuticals Inc., priority 2005, dated 2011)
Marks after values point to notes of the source that are not given here.

How the values were obtained:
[1] = test system: AMPA receptors; experiment: Voltage whole-cell recording: inhibition of KA-induced rundown of AMPA current in acutely dissociated prefrontal cortical neurons; assay type: cell-based, rats; conditions: KA 200 μM; rat PFC neurons; whole-cell voltage clamp, held at −60 mV; 0.1 μM was the lowest concentration tested
Method: (§1) Prefrontal cortical (PFC) neurons from young adult (3-5 weeks postnatal) rats are acutely dissociated using procedures similar to those described previously (Feng, et al., J Neurosci, 2001; Chen, et al., Proc Natl Acad Sci USA, 2004). After incubation of brain slices in a NaHCO3-buffered saline, PFC is dissected and placed in an oxygenated chamber containing papain (Sigma, 0.8 mg/ml) in HEPES-buffered Hank's balanced salt solution (HBSS, Sigma) at room temperature. After 40 minutes of enzyme digestion, tissue is rinsed three times in the low Ca^+2, HEPES-buffered saline and mechanically dissociated with a graded series of fire-polished Pasteur pipettes. The cell suspension is then plated into a 35 mm Lux Petri dish, which is then placed on the stage of a Nikon inverted microscope.
(§2) Whole-cell recordings of whole-cell ion channel currents employ standard voltage clamp techniques (Yan et al., Nat Neuroscience, 1999; Wang et al., J Neurosci, 2003; Tyszkiewicz et al., J. Physiol., 2004). The internal solution (inside the patch pipette) consists of (in mM): 180 N-methyl-d-glucamine (NMG), 40 HEPES, 4 MgCl2, 0.1 BAPTA, 12 phosphocreatine, 3 Na2ATP, 0.5 Na2GTP, 0.1 leupeptin, pH=7.2-7.3, 265-270 mosm/L. The external solution consists of (in mM): 127 NaCl, 20 CsCl, 10 HEPES, 1 CaCl2, 5 BaCl2, 12 glucose, 0.001 TTX, 0.02 glycine, pH=7.3-7.4, 300-305 mOsm/L. Recordings are obtained with an Axon Instruments 200B patch clamp amplifier that is controlled and monitored with an IBM PC running pCLAMP (v. 8) with a DigiData 1320 series interface (Axon instruments). Electrode resistances are typically 2-4 MΩ in the bath. After seal rupture to attain whole-cell recording conditions, series resistance (4-10 MΩ) is compensated (70-90%) and periodically monitored. The cell membrane potential is held at −60 mV.
(§3) The application of KA (200 μM) or NMDA (100 μM, in Mg^2+-free solution) evokes a partially desensitizing inward current. KA or NMDA is applied for 2 seconds every 30 seconds to minimize desensitization-induced decrease of current amplitude. Drugs are applied with a gravity-fed ‘sewer pipe’ system. The array of application capillaries (ca. 150 μm i.d.) is positioned a few hundred microns from the cell under study. Solution changes are effected by the SF-77B fast-step solution stimulus delivery device (Warner Instruments). Data are collected with PCLAMP software and analyzed with AXOGRAPH, KALEIDOGRAPH, and STATVIEW.
(§4) Compounds described herein inhibit the KA-induced rundown of AMPA current by either stabilizing the agonist-evoked current of increasing the current. Likewise, compounds described herein increase the NMDA-evoked current. The minimum effective dose (MED) was identified by determining the lowest concentration of inhibitor that was effective in each functional assay.

[2] = test system: NMDA receptors; experiment: Voltage whole-cell recording: increase of NMDA-evoked current in acutely dissociated prefrontal cortical neurons; assay type: cell-based, rats; conditions: rat PFC neurons; for Increase of NMDA-Evoked Current, Minimal Effective Concentration: NMDA 100 μM in Mg2+-free solution, whole-cell voltage clamp; for Average percent increase in NMDA current (10 μM): compound at 10 μM, NMDA 100 μM
Method: as §1, §2, §3, §4

SMILES: Cc1cc(-c2c(C)nn(-c3cccc(Cl)c3)c2O)[nH]n1 [Example 18, 5,5′-Dimethyl-2′-(3-chlorophenyl)-2H,2′H-[3,4′]bipyrazolyl-3′-ol]
- Inhibition of KA-Induced Rundown of AMPA Current, Minimal Effective Concentration [1]: 1.0 µM
- Increase of NMDA-Evoked Current, Minimal Effective Concentration [2]: 5 µM
- Average percent increase in NMDA current (10 μM) [2]: 55%

SMILES: Cc1cc(-c2c(C)nn(-c3ccccc3)c2O)[nH]n1 [Example 25, 5,5′-Dimethyl-2′-phenyl-2H,2′H-[3,4′]bipyrazolyl-3′-ol]
- Inhibition of KA-Induced Rundown of AMPA Current, Minimal Effective Concentration [1]: 1.0 µM

SMILES: Cc1cc(-c2c(C)nn(-c3ccc(Cl)cc3)c2O)[nH]n1 [Example 5, 2′-(4-Chloro-phenyl)-5,5′-dimethyl-2H,2′H-[3,4′]bipyrazolyl-3′-ol]
- Inhibition of KA-Induced Rundown of AMPA Current, Minimal Effective Concentration [1]: 0.1 * μM

SMILES: Cc1cc(-c2c(C)nn(-c3ccccc3F)c2O)[nH]n1 [Example 4, 2′-(2-Fluoro-phenyl)-5,5′-dimethyl-2H,2′H-[3,4′]bipyrazolyl-3′-ol]
- Inhibition of KA-Induced Rundown of AMPA Current, Minimal Effective Concentration [1]: 0.1 * μM

SMILES: Cc1cccc(-n2nc(C)c(-c3cc(C)n[nH]3)c2O)c1 [Example 15, 5,5′-Dimethyl-2′-(3-methyl-phenyl)-2H,2′H-[3,4′]bipyrazolyl-3′-ol]
- Inhibition of KA-Induced Rundown of AMPA Current, Minimal Effective Concentration [1]: 1.0 µM

SMILES: Cc1cc(-c2c(C)nn(-c3ccc(C(F)(F)F)cc3)c2O)[nH]n1 [Example 8, 5,5′-Dimethyl-2′-(4-trifluoromethyl-phenyl)-2H,2′H-[3,4′]bipyrazolyl-3′-ol]
- Increase of NMDA-Evoked Current, Minimal Effective Concentration [2]: 1 µM
- Average percent increase in NMDA current (10 μM) [2]: 303%
